{
  "source": "paper PMC7391724",
  "about": "(Scientific Reports, 2020)",
  "key": {"[1]": {"test": "Plasma protein binding (ultrafiltration), across all species", "assay_type": "in vitro ADME", "conditions": "rat, mouse, dog, human, 37 °C, read-out: plasma protein binding, range across all species", "protocol": "Plasma ultrafiltration was used for determination of free and protein bound fractions of EC2629 and EC2491. Samples were extracted and analyzed using fit-for-purpose bioanalytical methods. Briefly, 500 nM EC2629 or EC2491 was spiked into plasma maintained at 37 °C prior to plasma ultrafiltration. Plasma spiked with 500 nM EC2629 or EC2491 was allowed to equilibrate at 37 °C for 30 min prior to processing. Next, 50 μL of plasma was transferred to a clean 1.2 mL plate stored at 2–8 °C for further processing. The remaining plasma sample volumes were transferred to 30 Kd MWCO PES filter to generate plasma ultrafiltrate by centrifugation at 10,000×g for 20 min. After which, 50 μL of each plasma ultrafiltrate was transferred to separate wells in a clean 1.2 mL plate. To all spiked plasma samples, 50 μL of blank plasma ultrafiltrate was added. 50 μL of blank plasma was added to all experimental ultrafiltrate samples. These blank matrix additions normalized the matrix effects for protein binding determination. Samples were then extracted using protein precipitation with a 3:1 ratio of acetonitrile after addition of internal standard. The supernatant transferred to a new plate, evaporated, and reconstituted prior to LC–MS/MS analysis."}, "[2]": {"test": "Plasma stability, rat", "assay_type": "in vitro ADME", "conditions": "37 °C", "protocol": "(§1) Whole blood and plasma stability were determined for EC2629 and EC2491 at a concentration of 500 nM. Samples were extracted and analyzed using fit-for-purpose bioanalytical methods. EC2629 or EC2491 was spiked into 1 mL whole blood or plasma maintained at 37 °C for 30 min prior to use . Fifty µl aliquots were then removed at defined timepoints and stored in a 1.2 mL extraction plate prior to analysis. Samples were then extracted using protein precipitation with a 3:1 ratio of acetonitrile after addition of internal standard. The supernatant was then transferred to a new plate, evaporated, and reconstituted prior to LC–MS/MS analysis."}, "[3]": {"test": "Plasma stability, mouse", "assay_type": "in vitro ADME", "conditions": "37 °C", "protocol": "as §1"}, "[4]": {"test": "Plasma stability, dog", "assay_type": "in vitro ADME", "conditions": "37 °C", "protocol": "as §1"}, "[5]": {"test": "Whole blood stability, rat", "assay_type": "in vitro ADME", "conditions": "37 °C, after two hours, read-out: percent remaining in whole blood", "protocol": "as §1"}, "[6]": {"test": "Whole blood stability, mouse", "assay_type": "in vitro ADME", "conditions": "37 °C, after two hours, mouse whole blood, read-out: percent remaining in whole blood", "protocol": "as §1"}, "[7]": {"test": "Whole blood stability, dog", "assay_type": "in vitro ADME", "conditions": "37 °C, after two hours, read-out: percent remaining in whole blood", "protocol": "as §1"}, "[8]": {"test": "Whole blood stability, human", "assay_type": "in vitro ADME", "conditions": "37 °C, after two hours, human whole blood, read-out: percent remaining in whole blood", "protocol": "as §1"}, "[9]": {"test": "Liver microsome stability assay, rat", "assay_type": "in vitro ADME", "conditions": "1 µM; for percent of compound remaining: male rat liver microsomes, 37 °C", "protocol": "(§2) Appropriate microsomes (XenoTech) were incubated with EC2491 in the presence or absence of NADPH regenerating system (Corning Gentest) at 37 °C. Incubations with NADPH contained 352.5 μL DI water, 100 μL 0.5 M potassium phosphate buffer, pH 7.4, 25 μL NADPH solution A, […], and 12.5 μL of the appropriate microsomes. Incubations without NADPH contained 382.5 μL water, 100 μL 0.5 M potassium phosphate buffer, pH 7.4, and 12.5 μL of the appropriate microsomes. 50 μL aliquots were withdrawn at various time points and mixed with internal standard, EC3044 (Endocyte) in acetonitrile. After mixing and evaporation of the acetonitrile, the samples were reconstituted. The samples were mixed, centrifuged, and 100 μL of supernatant was transferred to a new plate prior to LC–MS/MS analysis."}, "[10]": {"test": "Liver microsome stability assay, dog", "assay_type": "in vitro ADME", "conditions": "1 µM; for percent of compound remaining: 37 °C", "protocol": "as §2"}, "[11]": {"test": "Liver microsome stability assay, human", "assay_type": "in vitro ADME", "conditions": "1 µM, human liver microsomes, 37 °C", "protocol": "as §2"}, "[12]": {"test": "Stability in phosphate buffer pH 7.4", "assay_type": "physicochemical", "conditions": "1 µM, 0.1 M phosphate buffer, pH 7.4, up to 1 h at 37 °C", "protocol": "The in vitro metabolic stability of EC2491 was evaluated using rat, dog, and human liver microsomes in the presence and absence of NADPH. Stability of EC2491 was also evaluated in phosphate buffer, pH 7.4, under the incubation conditions (see Fig. 7a). EC2491 (1 µM) is stable in 0.1 M phosphate buffer, pH 7.4 up to 1 h at 37 °C. When EC2491 (1 µM) is incubated with male rat, dog, and human microsomes in the absence of NADPH, there is some depletion of the compound such that approximately 63%, 56%, and 49% of the compound remains after 1 h in rat, dog, and human microsomes, respectively. […] In the presence of NADPH male rat liver microsomes metabolize EC2491 rapidly such that only 2% of the compound remains in the incubation mixture at the end of 1 h. Male dog and human liver microsomes metabolize EC2491 somewhat slowly (22% and 18% remaining at the end of 1 h respectively). This is indicative of CYP-mediated metabolism of EC2491."}, "[13]": {"system": "KB tumor xenografts", "test": "KB tumor xenograft in nu/nu mice", "assay_type": "in vivo", "conditions": "SJG-136 0.3 mg/kg SIW x 2 weeks", "protocol": "Four- to eight-week-old female nu/nu mice and rats (Harlan Sprague Dawley, Inc.), were maintained on a standard 12-h light–dark cycle and fed ad libitum with a low-folate chow (Harlan Teklad diet #TD.01013, Madison, WI) for the duration of dosing and 1 week post dosing schedule. Mice and rats were then switched to Teklad Global 18% Rodent diet (Harlan Teklad diet #2018S) during the monitoring phase of the study. Parental KB, KB-CR2000 or KB-PR10 cells (1 × 10^6/100 µL per nu/nu mouse and 5 × 10^6/200 µL per nu/nu rat) were injected into the subcutis of the dorsal medial area. Mice were divided into groups of 5 and rats in groups of 3–4, and freshly prepared test articles were injected through the lateral tail vein under sterile conditions in a volume of 200 μL/20 g of PBS. In mice, intravenous treatments typically initiated on day 7 PTI when KB tumors were approximately 111–168 mm^3 in volume, on day 5 PTI when the KB-PR tumors were about 205–243 mm^3, and on day 6 PTI when the KB-CR tumors were around 98 to 168 mm^3. Treatments in rats were started on day 10 PTI when KB tumors were approximately 412–704 mm^3 in volume.\nAnimals in the control groups received no treatment. Growth of each subcutaneous tumor was followed by measuring the tumor 3 times per week during treatment and twice per week thereafter, until a maximum volume of 1,500 mm^3 for mice and 15,000 mm^3 for rats were reached. Tumors were measured in two perpendicular directions using Vernier calipers, and their volumes were calculated as V = 0.5 × L × W^2, where L = measurement of longest axis in mm and W = measurement of axis perpendicular to L in mm[16]. As a general measure of gross toxicity, changes in body weights were determined on the same schedule as tumor volume measurements. Survival of animals was monitored daily. Animals that were moribund (or unable to reach food or water) were euthanized by CO2 asphyxiation. Individual tumor response endpoints were reported in terms of tumor volume change. A partial response (PR) was defined as volume regression > 50% but with measurable tumor (> 2 mm^3) remaining at all times. Complete response (CR) was defined as a disappearance of measurable tumor mass (< 2 mm^3) at some point within 90 days after tumor implantation. Cures were defined as CRs without tumor regrowth within the 90-day study time frame."}, "[14]": {"parameters": "method as in PMID 19276288", "conditions": "clinical studies, untargeted agent ref 19; cited from earlier work"}},
  "data": [
    {"compound": "C=C1C[C@H]2C=Nc3cc(OCCCCCOc4cc5c(cc4OC)C(=O)N4CC(=C)C[C@H]4C=N5)c(OC)cc3C(=O)N2C1", "note": "[EC2491]", "values": [
      {"measurement": "fraction unbound at 30 min, 500 nM", "setting": "[1]", "result": "0.02 to 0.05"},
      {"measurement": "time stable in plasma", "setting": "[2]", "result": "greater than 24 h"},
      {"measurement": "time stable in plasma", "setting": "[3]", "result": "greater than 24 h"},
      {"measurement": "time stable in plasma", "setting": "[4]", "result": "greater than 24 h"},
      {"measurement": "remaining at 2 h, 500 nM", "setting": "[5]", "result": 95.6, "unit": "%"},
      {"measurement": "remaining at 2 h, 500 nM", "setting": "[6]", "result": 87.3, "unit": "%"},
      {"measurement": "remaining at 2 h, 500 nM", "setting": "[7]", "result": 63.1, "unit": "%"},
      {"measurement": "remaining at 2 h, 500 nM", "setting": "[8]", "result": 80.6, "unit": "%"},
      {"measurement": "metabolism in CYP3A induced microsomes versus corn-oil treated controls", "setting": "[9]; dexamethasone-treated male rat liver microsomes, + NADPH", "result": "more rapid metabolism"},
      {"measurement": "percent of compound remaining", "setting": "[9]; absence of NADPH, after 1 h", "result": "approximately 63%"},
      {"measurement": "percent of compound remaining", "setting": "[9]; presence of NADPH, end of 1 h", "result": 2, "unit": "%"},
      {"measurement": "percent of compound remaining", "setting": "[10]; dog liver microsomes, absence of NADPH, after 1 h", "result": "~56", "unit": "%"},
      {"measurement": "percent of compound remaining", "setting": "[10]; male dog liver microsomes, presence of NADPH, end of 1 h", "result": 22, "unit": "%"},
      {"measurement": "metabolism in CYP3A induced microsomes versus corn-oil treated controls", "setting": "[10]; rifampin-treated dog liver microsomes, + NADPH", "result": "more rapid metabolism"},
      {"measurement": "percent of compound remaining", "setting": "[11]; absence of NADPH, after 1 h", "result": "~49", "unit": "%"},
      {"measurement": "percent of compound remaining", "setting": "[11]; presence of NADPH, end of 1 h", "result": 18, "unit": "%"},
      {"measurement": "stability in buffer", "setting": "[12]", "result": "stable"}
    ]},
    {"compound": "C=C1C[C@H]2C=Nc3cc(OCCCOc4cc5c(cc4OC)C(=O)N4CC(=C)C[C@H]4C=N5)c(OC)cc3C(=O)N2C1", "note": "[SJG-136]", "values": [
      {"measurement": "average weight loss", "setting": "[13]", "result": "~ 10%"},
      {"measurement": "deaths, number of animals", "setting": "[13]; at 2 weeks post start of treatment, n=5", "result": "one"},
      {"measurement": "CR (complete response), number of animals", "setting": "[13]; n=5", "result": 0},
      {"measurement": "Cures, number of animals", "setting": "[13]; n=5", "result": 2},
      {"measurement": "PR (partial response), number of animals", "setting": "[13]; n=5", "result": 2},
      {"measurement": "clinical toxicity", "setting": "[14]", "result": "dose-limiting hepatotoxicity and vascular leak syndrome"}
    ]}
  ]
}
